Measured values from paper PMC12851007 (Angewandte Chemie (International Ed. in English), 2025).
Like-named read-outs stand apart in the source and are kept apart here. Where a SMILES comes first, the peptide text is derived from it.

Columns and labels:
[1] = CF dye efflux assay, POPC vesicles; format: biochemical; details: error = SD of fit
From the text: Time-dep endent fluores cence intensit y traces, I (t), were subsequentl y normalized to fractional intensities, If(t), using equation (1). Therein, I 0 is the intensity just before addition of peptide and I ∞ is the constant intensit y after addition of the calibration cockt ail.
IIf (tt ) = II (tt )−II0II∞ − II0 (1)
The concentration-dependent fractional intensities just before the addition of the calibration cocktail, If, were then normalized to fractional membrane activities, Y, using equation (2).
Therein, If,0 is the fractional intensit y just before addition of the calibration cocktail in absence of peptide and I f,∞ is the constant fractional intensity after addition of the calibration cocktail.
YY = IIf − IIf,0IIf,∞ − IIf,0 (2)
The fractional membrane activities, Y, were subsequently plotted against the peptide concentration, c, and analysed using the Hill equation (3) to obtain the effective molar concentration, EC50, and the Hill coefficient, n. Y0 and Y ma x are the fractional membrane activities in absen ce o f p eptide and at max imal peptide concent rations. For peptides with too little activity to determine Y ma x ex perimentall y, Y max was fixed at 1.0 during fitting.
YY = YY0 + YYmax − YY0nn (3)
Vesicle preparation. 100 µ L of a solution of 25 mg/ml of POPC in chloroform or 200 µ L of a solution of 25 mg/ml of EYPC in chloroform was purged with a stream of nitrogen and dried overnight under high vacuum. The thin lipid film was reh ydrated with 1ml of reh yd ration buffer (= inside buffer, see Table S3 ) b y agitation at room temperature for 30 min and then subjected to 5 freeze- thaw cycles (freezing in liquid nitrogen and thawing at 40 °C).
Subsequently, the liposome suspension was extruded ≥ 15 times through a polycarbonate membrane (pore size 100 nm). Extravesicular components were then removed by size exclusion chromatography using a 1.5 × 12 cm polyprop ylene column (Bio- Rad, German y) with 1.0 g Sephad ex G-50 (medium) as a stationa r y ph ase and the resp ectiv e outside buffer for […]
Ta b l e S 3. Combinations of inside and outside buffer for CF -LUVs.
No. Lipid Inside buffer = rehydration buffer Outside buffer
(1) EYPC 10 mM Hepes, 50 mM CF, pH 7.5 10 mM Hepes, 97 mM NaCl, pH 7.5
(2) POPC 10 mM Hepes, 50 mM CF, pH 7.5 10 mM Hepes, 97 mM NaCl, pH 7.5
(3) POPC 10 mM Hepes, 50 mM CF, pH 7.5 10 mM Hepes, 175 mM glucose, pH 7.5 [a] [a] Glucose b uffers (183 mOsm/L at 25 °C) were used within one week after preparation.
Vesicle quality control. The size distribution of the liposomes was confirmed by DLS to be unimodal and avera ge ve sicles diameters wer e in the ran ge from 115 to 130 nm. The final lipid content in the liposome s uspension after prep ar ation and sep aration w as det ermined b y NMR. CF vesicles are comparabl y leak y and cont ain minor amounts of ex travesi cular CF after a f ew days. When the fluores cence chan ge after vesicl e lys is b y addition of 20 µ L 1.6% (wt/vol) TX-100 was less than a factor of four, the vesicle suspension was no longer used.
Assay protocol. An appropriate volume of the liposome stock solutions was diluted to 2 mL with outside buffer in a 10 ×10 mm quartz glass cuvette to afford a phospholipid concentration of 25 µM. The cuvette was placed into a thermostatted fluorimeter sample holder and gentl y stirred at 300 rpm at (25.0± 0.1) °C. Subsequentl y, the time-dependent change in fluorescence intensity (C F: λ exc = 492 nm, λ em = 517 nm) was recorded during addition of 20 µL peptide stock solution of var ying concentrations at 60 s and 20µ L of a calibration cocktail (1. 6% […]
intensities, If(t), using equation (1) and the concentration- dependent fractional intensities just before the addition of th e calibration co cktail, I f, w ere then normaliz ed to fr actional membran e activities, Y, using equation (2). The fractional membrane activities, Y, were subsequently plotted against the peptide concentration, c, and anal ysed using the Hill equation (3) to obtain […]

[2] = format: binding; details: LCG displacement in 10 mM Hepes, pH 7.0, 25 °C; fluorescence; error = SD of nonlinear fit, n = 1
Description: Fluorescence titrations were performed as previously described and the resulting titration curves we re an al yz ed usi ng established pro cedur es . Competitive titrations were eithe r anal yz ed with a fitting function assuming 1:1 host-competitor complexes[3] or with a fitting function involving hi gher complex es with more than on e h ost bound per peptide.[4] In the latter c ase, an identical binding affinity is assumed for all binding sites. […]
Figure S1. a) Fluorescence titration of 0.5 µM LCG ( λex = 369 n m) with varying concentrations of CX4 in 10 mM Hepes, pH 7.0, 25 °C .b) Respective titration curve ( λem = 502 nm) with fitted line . […]
Figure S2. a) Competitive fluorescence titration wit h 0.5 µM LCG, 1 µM CX4 ( λex = 369 nm) and varying concentrations of penetratin in 10 mM Hepes, pH 7.0, 25 °C . b) Respective titration c ur ve (λem = 502 nm) with fitted line .
(also on this page, place not known: analyzed using procedures. were either analyzed host -competitor higher complexes one host case, 700 Intensity Intensity (λex °C. line. 650 0 Intensity 0 Intensity b) curve (λem nm) with line.)

[3] = single-channel, 25 µM POPC⸧CF-LUVs, inside 10 mM Hepes, 50 mM CF, pH 7.5, outside 10 mM Hepes, 175 mM glucose, pH 7.5, n = 1, read-out: EC50, CF assay in glucose-containing buffer

Row | Compound | EC50 [1, 3] [µM] | K a, binding constant of peptide to CX4 [2] | EC50, CF assay, isosmotic ([1]; 25 µM POPC⸧CF-LUVs diluted into 10 mM Hepes, 97 mM NaCl, pH 7.5, 25 °C, fractional activity at 590 s, n = 1 (Table S6, Figures S17, S19)) | EC50, CF assay, POPC ([1]; 25 µM lipid, POPC⊃CF-LUVs, 10 mM Hepes, 97 mM NaCl, pH 7.5, 25 °C, fractional activity at 590 s, Hill fit, n = 1 (Table S5)) | EC50 ([1]; 25 µM lipid, POPC⊃CF-LUVs, 10 mM Hepes, 97 mM NaCl, pH 7.5, 25 °C, fractional activity at 590 s, Hill fit, n = 1 (Table S5), read-out: EC50, CF assay, POPC) [µM]
1 | CC[C@H](C)[C@H](NC(=O)[C@H](CCCCN)NC(=O)[C@H](CCCCN)NC(=O)[C@H](C)NC(=O)[C@H](CC(C)C)NC(=O)[C@H](C)NC(=O)[C@H](C)NC(=O)[C@H](CC(C)C)NC(=O)[C@H](C)NC(=O)[C@H](CCCCN)NC(=O)[C@H](CC(C)C)NC(=O)[C@H](CC(N)=O)NC(=O)[C@@H](NC(=O)[C@H](CCCCN)NC(=O)CNC(=O)[C@H](CC(C)C)NC(=O)[C@H](CC(C)C)NC(=O)[C@H](Cc1ccc(O)cc1)NC(=O)CNC(=O)[C@H](C)N)[C@@H](C)CC)C(=O)N[C@@H](CC(C)C)C(=O)O [TP10] | 0.12 ± 0.02 | – | – | – | –
2 | CC(C)C[C@H](NC(=O)[C@H](CC(C)C)NC(=O)[C@H](CCCNC(=N)N)NC(=O)[C@@H](N)CC(C)C)C(=O)N[C@@H](CCCNC(=N)N)C(=O)N[C@@H](Cc1c[nH]c2ccccc12)C(N)=O [LRLLRW] (H-LRLLRW-NH2) | 101 ± 9 | (1.3 ± 0.1) × 10^6 M^−1 | – | – | –
3 | CC[C@H](C)[C@H](NC(=O)[C@H](CCCCN)NC(=O)[C@@H](NC(=O)[C@@H](N)CCC(N)=O)[C@@H](C)CC)C(=O)N[C@@H](Cc1c[nH]c2ccccc12)C(=O)N[C@@H](Cc1ccccc1)C(=O)N[C@@H](CCC(N)=O)C(=O)N[C@@H](CC(N)=O)C(=O)N[C@@H](CCCNC(=N)N)C(=O)N[C@@H](CCCNC(=N)N)C(=O)N[C@@H](CCSC)C(=O)N[C@@H](CCCCN)C(=O)N[C@@H](Cc1c[nH]c2ccccc12)C(=O)N[C@@H](CCCCN)C(=O)N[C@@H](CCCCN)C(=O)O (H-QIKIWFQNRRMKWKK-OH) | – | (9.9 ± 1.8) × 10^7 M^−1 | too low to determine | too low to determine | –
4 | CC(C)[C@H](NC(=O)[C@H](CCCCN)NC(=O)[C@H](CCCNC(=N)N)NC(=O)[C@H](CCCCN)NC(=O)[C@H](CCCCN)NC(=O)[C@H](CCCCN)NC(=O)[C@@H]1CCCN1C(=O)[C@H](CCC(N)=O)NC(=O)[C@H](CO)NC(=O)[C@H](Cc1c[nH]c2ccccc12)NC(=O)[C@H](CC(=O)O)NC(=O)[C@@H](NC(=O)[C@H](Cc1c[nH]c2ccccc12)NC(=O)[C@H](Cc1c[nH]c2ccccc12)NC(=O)[C@@H](NC(=O)[C@H](CC(=O)O)NC(=O)[C@H](Cc1c[nH]c2ccccc12)NC(=O)[C@H](Cc1c[nH]c2ccccc12)NC(=O)[C@@H](NC(=O)[C@H](CC(=O)O)NC(=O)[C@@H](N)CCCCN)[C@@H](C)O)[C@@H](C)O)[C@@H](C)O)C(=O)O [Pep‐1] (H-KDTWWDTWWTDWSQPKKKRKV-OH) | 540 ± 90 | (2.8 ± 0.2) × 10^6 M^−1 | – | – | 114 ± 5
